Laboratory results taken from patent US10336792B2, “Antimicrobial peptide dendrimers” (priority 2014, dated 2019).
Values after ≈ are worked out from the molar mass of the structure shown. Positions of bridges follow the written chain, without caps; N, C: chain ends. Residues, ends and D or L forms follow the SMILES beside them. Groups on a side chain read outwards from the residue. Chains are numbered I, II in the order given.

Test system: Pseudomonas aeruginosa (strain PA01)
Assay: microbe, parasite or virus in culture
Type: cell-based
Conditions: strain
Experimental: Antimicrobial activity was assayed against Bacillus subtilis (strain BR151), Escherichia coli (strain DH5α) and Pseudomonas aeruginosa (strain PA01). Microdilution broth method was used to determine the minimal inhibitory concentration (MIC). A colony of bacteria was grown in LB-medium overnight at 37° C. The concentration was quantified by measuring absorbance at 600 nm and diluted to OD600=0.1 (1×10^8 CFU/mL). The samples were prepared as stock solutions of 1 mg mL^−1 in H2O and diluted serially by ⅔ in nutrient LB in a 96-well microtiterplate (Cornstar, polypropylene, untreated). The sample solutions (50 μL) were mixed with the diluted bacterial suspension with an OD600 nm of 0.001 (50 μL). […] The plates were incubated at 37° C. until satisfactory growth (18-24 h). For each test, two columns of the plate were kept for sterility control (SC, broth only) and growth control (GC, broth with bacterial inoculums, no antibiotics). 10 μL of a solution of MTT (0.1% in H2O) was added to each well. The minimal inhibitory concentration (MIC) was defined as the lowest concentration of the antimicrobial substance (peptide dendrimer) that inhibited visible growth of the tested bacteria (yellow) with the unaided eye. For microbiological study the linear peptide LysTyrLysLysAlaLeuLysLysLeuAlaLysLeuLeu (SEQ ID No. 1) was used as reference.
All peptides were tested for their activity against P. aeruginosa PAO1 in a broth dilution assay (Wiegand, I. et al., 2008, Nat. Protoc., 3, 163-75; Clinical and Laboratory Standards Institute document M7-A7 7th Edition) to determine the MIC (minimal inhibitory concentration) values. The stock solutions of the peptide dendrimers were diluted serially by ⅔ in nutrient LB in 96-well microtiter plates. Bacteria were grown in nutrient LB overnight at 37° C. After dilution the bacteria were added to the peptides and incubated overnight (18-24 h) at 37° C. […] The position of the amino acids between the branching units seems to be optimal if the hydrophobic amino acid is the first counting from C-terminus and the charged one is on the second position. Introducing Ala as additional hydrophobic amino acid reduces activity (MSt-120). […] Also assembling charged or hydrophobic sections between the branching units leads to loss of activity whereas altering L-amino acids to D-amino acids maintains activity leading to the hypothesis that the mechanism of action should not be receptor mediated.

Row | MIC P. aeruginosa PAO1 [µg/mL] | SMILES
1 | 12 (≈ 1.8 µM) | CC(C)C[C@H](NC(=O)[C@H](CCCNC(=N)N)NC(=O)[C@H](CCCCNC(=O)[C@H](CC(C)C)NC(=O)[C@H](CCCNC(=N)N)NC(=O)[C@H](CCCCNC(=O)[C@H](CC(C)C)NC(=O)[C@H](CCCNC(=N)N)NC(=O)CSC[C@H](NC(=O)[C@H](CC(C)C)NC(=O)[C@H](CCCNC(=N)N)NC(=O)[C@H](CCCCNC(=O)[C@H](CC(C)C)NC(=O)[C@@H](N)CCCNC(=N)N)NC(=O)[C@H](CC(C)C)NC(=O)[C@@H](N)CCCNC(=N)N)C(N)=O)NC(=O)[C@H](CC(C)C)NC(=O)[C@H](CCCNC(=N)N)NC(=O)CSC[C@H](NC(=O)[C@H](CC(C)C)NC(=O)[C@H](CCCNC(=N)N)NC(=O)[C@H](CCCCNC(=O)[C@H](CC(C)C)NC(=O)[C@@H](N)CCCNC(=N)N)NC(=O)[C@H](CC(C)C)NC(=O)[C@@H](N)CCCNC(=N)N)C(N)=O)NC(=O)[C@H](CC(C)C)NC(=O)[C@H](CCCNC(=N)N)NC(=O)[C@H](CCCCNC(=O)[C@H](CC(C)C)NC(=O)[C@H](CCCNC(=N)N)NC(=O)CSC[C@H](NC(=O)[C@H](CC(C)C)NC(=O)[C@H](CCCNC(=N)N)NC(=O)[C@H](CCCCNC(=O)[C@H](CC(C)C)NC(=O)[C@@H](N)CCCNC(=N)N)NC(=O)[C@H](CC(C)C)NC(=O)[C@@H](N)CCCNC(=N)N)C(N)=O)NC(=O)[C@H](CC(C)C)NC(=O)[C@H](CCCNC(=N)N)NC(=O)CSC[C@H](NC(=O)[C@H](CC(C)C)NC(=O)[C@H](CCCNC(=N)N)NC(=O)[C@H](CCCCNC(=O)[C@H](CC(C)C)NC(=O)[C@@H](N)CCCNC(=N)N)NC(=O)[C@H](CC(C)C)NC(=O)[C@@H](N)CCCNC(=N)N)C(N)=O)C(N)=O [CCS-27, (RL)8(KRLCxRL)4(KRL)2KRL]
2 | 2 (≈ 0.694 µM) | CC(C)C[C@H](NC(=O)[C@H](CCCCN)NC(=O)[C@H](CC(C)C)NC(=O)[C@H](CCCCNC(=O)[C@H](CC(C)C)NC(=O)[C@H](CCCCN)NC(=O)[C@H](CC(C)C)NC(=O)[C@H](CCCCNC(=O)[C@H](CC(C)C)NC(=O)[C@H](CCCCN)NC(=O)[C@@H](N)CC(C)C)NC(=O)[C@H](CC(C)C)NC(=O)[C@H](CCCCN)NC(=O)[C@@H](N)CC(C)C)NC(=O)[C@H](CC(C)C)NC(=O)[C@H](CCCCN)NC(=O)[C@H](CC(C)C)NC(=O)[C@H](CCCCNC(=O)[C@H](CC(C)C)NC(=O)[C@H](CCCCN)NC(=O)[C@@H](N)CC(C)C)NC(=O)[C@H](CC(C)C)NC(=O)[C@H](CCCCN)NC(=O)[C@@H](N)CC(C)C)C(N)=O [MIS-04, (LKL)4(KLKL)2(KLKL)] (I: H-LKLK([Leu-Lys-Leu])LKLKLKL-NH2 / II: H-LKLK([Leu-Lys-Leu])LKL; amide I:8-II:C)
3 | 15 (≈ 7.72 µM) | CC(C)C[C@H](NC(=O)[C@H](CCCCN)NC(=O)[C@H](CCCCNC(=O)[C@H](CC(C)C)NC(=O)[C@@H](N)CCCCN)NC(=O)[C@H](CC(C)C)NC(=O)[C@@H](N)CCCCN)C(=O)N[C@@H](CSSC[C@H](NC(=O)[C@H](CC(C)C)NC(=O)[C@H](CCCCN)NC(=O)[C@H](CCCCNC(=O)[C@H](CC(C)C)NC(=O)[C@@H](N)CCCCN)NC(=O)[C@H](CC(C)C)NC(=O)[C@@H](N)CCCCN)C(N)=O)C(N)=O [CCS-5 dimer, ((KL)2KKLC)2] (I: H-KLK([Leu-Lys])KLC-NH2 / II: H-KLK([Leu-Lys])KLC-NH2; disulfide I:6-II:6)

Row | SMILES | MIC P. aeruginosa PAO1 [µg/mL]
4 | CC(C)C[C@H](NC(=O)[C@H](CCCCN)NC(=O)[C@H](CCCCNC(=O)[C@H](CC(C)C)NC(=O)[C@H](CCCCN)NC(=O)[C@H](CCCCNC(=O)[C@H](CC(C)C)NC(=O)[C@@H](N)CCCCN)NC(=O)[C@H](CC(C)C)NC(=O)[C@@H](N)CCCCN)NC(=O)[C@H](CC(C)C)NC(=O)[C@H](CCCCN)NC(=O)[C@H](CCCCNC(=O)[C@H](CC(C)C)NC(=O)[C@@H](N)CCCCN)NC(=O)[C@H](CC(C)C)NC(=O)[C@@H](N)CCCCN)C(N)=O [MSt-146, (KL)4(KKL)2(KKL)] (I: H-KLK([Leu-Lys])KLKKL-NH2 / II: H-KLK([Leu-Lys])KL; amide I:6-II:C) | 7 (≈ 3.35 µM)
